Data from ChEMBL document CHEMBL5579817, “Recent advances in targeting histone H3 lysine 36 methyltransferases for cancer therapy” (Eur J Med Chem, 2024).
Blank lines part the entries; values can stand above or below the compound they belong to.

How the values were obtained:
[1] = Antiproliferative activity against […] assessed as reduction in cell growth incubated for 48 hrs by MTT assay; format: functional, cell-based; details: RN 22, 48 h
[2] = target: T1, Histone-lysine N-methyltransferase NSD2 (Homo sapiens, UniProt O96028); test: Inhibition of MMSET (953 to 1240 residues) (unknown origin) by Alpha Screen assay
T1 sequence (O96028 whole entry): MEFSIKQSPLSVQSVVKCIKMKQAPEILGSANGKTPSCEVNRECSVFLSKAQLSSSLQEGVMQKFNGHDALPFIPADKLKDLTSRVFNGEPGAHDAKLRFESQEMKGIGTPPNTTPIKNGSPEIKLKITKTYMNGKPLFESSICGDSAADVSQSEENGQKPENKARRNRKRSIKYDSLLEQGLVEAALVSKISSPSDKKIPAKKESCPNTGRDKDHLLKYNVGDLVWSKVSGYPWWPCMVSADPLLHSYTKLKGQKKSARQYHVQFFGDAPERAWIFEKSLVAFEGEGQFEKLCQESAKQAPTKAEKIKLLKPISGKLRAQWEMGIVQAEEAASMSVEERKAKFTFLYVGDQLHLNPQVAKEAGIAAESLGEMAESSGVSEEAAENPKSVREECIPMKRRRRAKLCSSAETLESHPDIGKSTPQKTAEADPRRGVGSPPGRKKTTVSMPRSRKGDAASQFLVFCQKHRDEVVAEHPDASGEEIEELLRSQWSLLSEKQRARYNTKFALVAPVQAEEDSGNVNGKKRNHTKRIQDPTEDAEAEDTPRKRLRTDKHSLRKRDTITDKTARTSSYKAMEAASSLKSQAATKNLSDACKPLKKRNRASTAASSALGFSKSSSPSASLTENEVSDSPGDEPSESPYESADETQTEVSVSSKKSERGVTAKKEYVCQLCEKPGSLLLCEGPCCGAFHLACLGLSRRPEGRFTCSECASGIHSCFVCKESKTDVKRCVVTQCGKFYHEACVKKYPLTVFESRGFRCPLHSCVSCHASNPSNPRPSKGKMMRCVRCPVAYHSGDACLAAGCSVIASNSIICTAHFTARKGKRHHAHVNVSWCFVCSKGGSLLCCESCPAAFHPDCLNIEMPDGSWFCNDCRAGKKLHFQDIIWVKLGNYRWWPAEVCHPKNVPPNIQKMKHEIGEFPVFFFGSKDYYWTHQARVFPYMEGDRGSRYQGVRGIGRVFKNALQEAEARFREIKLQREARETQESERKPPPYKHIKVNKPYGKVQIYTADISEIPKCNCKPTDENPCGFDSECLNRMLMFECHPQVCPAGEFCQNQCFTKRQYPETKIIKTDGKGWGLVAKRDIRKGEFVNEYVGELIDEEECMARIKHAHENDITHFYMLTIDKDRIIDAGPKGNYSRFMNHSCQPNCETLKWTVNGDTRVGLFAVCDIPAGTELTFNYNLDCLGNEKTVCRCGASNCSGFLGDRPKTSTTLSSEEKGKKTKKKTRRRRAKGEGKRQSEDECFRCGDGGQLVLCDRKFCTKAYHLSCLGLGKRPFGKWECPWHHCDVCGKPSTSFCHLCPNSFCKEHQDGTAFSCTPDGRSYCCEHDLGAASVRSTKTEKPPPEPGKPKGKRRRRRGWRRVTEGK

MV4-11 = test: Growth inhibition of human MV4-11 cells after 7 days by WST-8 assay; format: functional; details: MV4-11, 168 h, time 7 day
KOPN-8 = test: Growth inhibition of human KOPN-8 cells; format: functional
MOLM-13 = test: Growth inhibition of human MOLM-13 cells; format: functional
[3] = target: T1, Histone-lysine N-methyltransferase NSD2; test: Binding affinity to NSD2 (unknown origin) assessed as dissociation constant by SPR analysis
[4] = target: Protein cereblon/Histone-lysine N-methyltransferase NSD2 (Homo sapiens, UniProt O96028+Q96SW2); test: PROTAC activity at CRBN/NSD2 in human VCaP cells assessed as induction of NSD2 degradation at 2 uM incubated for 24 hrs by immunoblot analysis; format: cell-based
Protein cereblon/Histone-lysine N-methyltransferase NSD2, sequence (Q96SW2 whole entry, one chain of several, the tested form may be a part): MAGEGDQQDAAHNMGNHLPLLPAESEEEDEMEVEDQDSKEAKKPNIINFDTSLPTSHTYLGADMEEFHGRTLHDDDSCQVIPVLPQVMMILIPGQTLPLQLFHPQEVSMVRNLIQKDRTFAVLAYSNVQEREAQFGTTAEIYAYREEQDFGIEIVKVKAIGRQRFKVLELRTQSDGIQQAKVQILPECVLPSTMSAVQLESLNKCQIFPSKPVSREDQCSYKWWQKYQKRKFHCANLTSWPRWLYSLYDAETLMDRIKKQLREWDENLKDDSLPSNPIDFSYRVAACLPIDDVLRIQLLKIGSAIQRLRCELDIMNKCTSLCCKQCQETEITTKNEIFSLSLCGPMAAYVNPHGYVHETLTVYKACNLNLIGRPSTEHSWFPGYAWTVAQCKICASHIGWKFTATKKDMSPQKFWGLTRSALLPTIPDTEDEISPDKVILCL

[5] = target: T1, Histone-lysine N-methyltransferase NSD2; test: Inhibition of NSD2 SET domain (unknown origin) extracted from Escherichia coli BL21
EOL1 = test: Antiproliferative activity against human EOL1 cells assessed as cell growth inhibition; format: functional, cell-based
[6] = target: von Hippel-Lindau disease tumor suppressor/Histone-lysine N-methyltransferase NSD3 (Homo sapiens, UniProt Q9BZ95+P40337); test: PROTAC activity at VHL/NSD3 […] domain in human MOLM-13 cells assessed as […] measured after 48 hrs by immunoblotting analysis; format: cell-based
von Hippel-Lindau disease tumor suppressor/Histone-lysine N-methyltransferase NSD3, sequence (Q9BZ95 whole entry): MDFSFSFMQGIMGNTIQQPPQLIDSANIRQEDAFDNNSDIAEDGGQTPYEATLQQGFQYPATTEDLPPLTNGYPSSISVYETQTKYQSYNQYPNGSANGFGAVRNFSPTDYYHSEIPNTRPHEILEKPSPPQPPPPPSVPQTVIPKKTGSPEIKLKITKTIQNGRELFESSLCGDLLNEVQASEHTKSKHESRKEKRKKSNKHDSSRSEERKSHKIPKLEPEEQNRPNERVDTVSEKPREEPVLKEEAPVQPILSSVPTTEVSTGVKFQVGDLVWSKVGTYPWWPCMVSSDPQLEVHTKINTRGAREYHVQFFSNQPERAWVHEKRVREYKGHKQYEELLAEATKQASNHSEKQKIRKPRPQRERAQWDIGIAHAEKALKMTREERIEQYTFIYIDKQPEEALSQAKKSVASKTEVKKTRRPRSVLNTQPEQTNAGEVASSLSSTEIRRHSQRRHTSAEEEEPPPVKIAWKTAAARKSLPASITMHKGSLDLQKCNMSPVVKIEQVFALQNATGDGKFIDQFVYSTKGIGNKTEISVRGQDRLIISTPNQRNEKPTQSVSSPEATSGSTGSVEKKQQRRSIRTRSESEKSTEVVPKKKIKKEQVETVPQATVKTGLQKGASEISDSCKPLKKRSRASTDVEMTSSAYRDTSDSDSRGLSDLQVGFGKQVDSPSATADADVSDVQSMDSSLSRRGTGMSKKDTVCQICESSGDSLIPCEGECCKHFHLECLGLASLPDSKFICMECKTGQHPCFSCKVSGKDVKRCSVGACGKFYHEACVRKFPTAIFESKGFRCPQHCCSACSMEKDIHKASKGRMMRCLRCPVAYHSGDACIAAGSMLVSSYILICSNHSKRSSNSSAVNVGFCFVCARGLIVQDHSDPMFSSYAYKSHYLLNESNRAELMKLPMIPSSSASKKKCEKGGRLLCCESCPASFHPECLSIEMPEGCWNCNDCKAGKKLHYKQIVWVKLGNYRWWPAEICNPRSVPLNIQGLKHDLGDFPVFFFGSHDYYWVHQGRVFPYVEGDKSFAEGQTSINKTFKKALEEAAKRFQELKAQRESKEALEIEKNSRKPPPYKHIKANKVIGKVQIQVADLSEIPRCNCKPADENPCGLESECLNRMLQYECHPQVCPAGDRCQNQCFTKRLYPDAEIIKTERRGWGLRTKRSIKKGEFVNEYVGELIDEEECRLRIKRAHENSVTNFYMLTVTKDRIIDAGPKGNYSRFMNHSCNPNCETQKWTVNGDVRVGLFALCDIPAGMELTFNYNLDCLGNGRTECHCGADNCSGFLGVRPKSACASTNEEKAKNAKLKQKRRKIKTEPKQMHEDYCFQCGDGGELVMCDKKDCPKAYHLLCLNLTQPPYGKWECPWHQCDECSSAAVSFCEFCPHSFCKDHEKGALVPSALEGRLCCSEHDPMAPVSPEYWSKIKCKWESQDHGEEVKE
von Hippel-Lindau disease tumor suppressor/Histone-lysine N-methyltransferase NSD3, sequence (P40337 whole entry): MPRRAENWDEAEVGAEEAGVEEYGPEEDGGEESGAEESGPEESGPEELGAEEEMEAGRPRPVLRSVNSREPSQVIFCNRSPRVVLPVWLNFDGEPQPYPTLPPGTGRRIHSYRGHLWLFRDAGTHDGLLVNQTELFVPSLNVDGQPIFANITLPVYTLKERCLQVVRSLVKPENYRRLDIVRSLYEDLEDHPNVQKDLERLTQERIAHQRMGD

[7] = Oral bioavailability in CD-1 mouse by LC-MS/MS analysis; format: ADME, organism-based; details: in vivo
[8] = Oral bioavailability in Sprague-Dawley rat by LC-MS/MS analysis; format: ADME, organism-based; details: in vivo

Compound: Cc1cc(CN)cc(C)c1-c1ncn(C)c1-c1ccnc2cc(F)ccc12
IC50 [1]: 13000 nM

Compound: Cc1cccc2cc(C(=O)Nc3ccccc3)[nH]c12
IC50 [2]: 4240 nM

Compound: Cc1ccc(F)c2cc(C(=O)Nc3cccc(N4CCC(N(C)C)CC4)c3)[nH]c12
IC50 [2]: 10 nM

Compound: Cc1cccnc1C(NC(=O)c1cc2c(F)ccc(C)c2[nH]1)C1CC1 (centres undefined)
IC50 [2]: 600 nM

Compound: O=C1O[C@@H](C(=O)N2CCN(Cc3nc4sc5c(c4c(=O)[nH]3)CCCC5)CC2)Cc2ccccc21
IC50 [5]: 132 nM

Compound: Cc1cccnc1C(NC(=O)c1cc2cccc(C)c2[nH]1)C1CC1 (centres undefined)
IC50 [2]: 3080 nM

Compound: CC(=O)N1CCN([C@H]2CCC[C@@H](NC(=O)c3cc4c(F)ccc(C)c4[nH]3)C2)CC1 [EZM-0414]
IC50 [2]: 18 nM | bioavailability [7]: > 100% | bioavailability [8]: 97%

Compound: CN1CC(C(=O)NCc2ccc3c(-c4cccc(C(N)=S)c4)cn(C4CCN(S(=O)(=O)C(F)(F)F)CC4)c3c2)C1
GI50 (MV4-11): 1800 nM | GI50 (KOPN-8): 1800 nM | GI50 (MOLM-13): 1800 nM

Compound: CC(=O)N(C)C1CCN(c2cc(F)cc(NC(=O)c3cc4c(F)ccc(C)c4[nH]3)c2)C1 (centres undefined)
IC50 [2]: 7 nM

Compound: Cc1cccc2cc(C(=O)NC3CCC(N)CC3)[nH]c12 (centres undefined)
IC50 [2]: 166000 nM

Compound: O=C(CNc1cccc2c1C(=O)N(C1CCC(=O)NC1=O)C2=O)NCCCOc1ccc(NC(=O)c2ccc(CN(C(=O)c3ccc4c(c3)OCC(=O)N4)C3CC3)cc2)nc1 (centres undefined)
DC50 [4]: 5200 nM

Continued, in another order:

GI50 (MV4-11): 5000 nM | GI50 (MOLM-13): 5000 nM
Compound: NC(=S)c1cccc(-c2cn(C3CCN(S(=O)(=O)C(F)(F)F)CC3)c3cc(CNC(=O)C4CNC4)ccc23)c1
GI50 (KOPN-8): 5000 nM

Kd [3]: 24 nM | DC50 [4]: 350 nM
Compound: NCCCCCCNC(=O)c1ccc(NC(=O)c2ccc(CN(C(=O)c3ccc4c(c3)OCC(=O)N4)C3CC3)cc2)cc1

DC50 [6]: 4900 nM
Compound: Cc1cc(CNCCCC(=O)NCCCCCCCCC(=O)N[C@H](C(=O)N2C[C@H](O)C[C@H]2C(=O)N[C@@H](C)c2ccc(-c3scnc3C)cc2)C(C)(C)C)cc(C)c1-c1ncn(C)c1-c1ccnc2cc(F)ccc12
IC50 (EOL1): 2300 nM

IC50 [2]: 1800 nM
Compound: CCC(C)N[C@@H](CC[C@H](N)C(=O)O)C[C@H]1O[C@@H](n2cnc3c(N)ncnc32)[C@H](O)[C@@H]1O (some centres undefined)
